Laboratory results taken from article PMC4995043, “A Diverse Family of Host-Defense Peptides (Piscidins) Exhibit Specialized Anti-Bacterial and Anti-Protozoal Activities in Fishes” (PLoS ONE, 2016).
In brackets after ≈: the same amount, converted by molar mass. Where two headings read alike, the source gives them in different places. Where a SMILES comes first, the peptide text is derived from it.

Tests used:
E. coli = format: cell-based, Escherichia coli; conditions: 18 h
From the text: (§1) Fish bacterial pathogens, Streptococcus iniae (stock 00–1425; isolated from rainbow trout, Oncorhynchus mykiss), Lactococcus garvieae (stock 00–1422; multiple antibiotic-resistant strain), Vibrio anguillarum (stock 91–3057; ATCC 19264), and Aeromonas salmonicida (stock 91–3053; ATCC® 7965™), and human bacterial pathogens, Enterococcus faecalis (stock 00–1403; ATCC 29212), Staphylococcus aureus (ATCC 29213), Shigella flexneri (stock 00–1402; ATCC 12022), and Escherichia coli (stock 00–1405; ATCC 25922), were cultured from frozen stocks stored in glycerol at -80°C. L. garvieae, A. salmonicida, E. faecalis, S. aureus, and S. flexneri were grown in Mueller Hinton Broth (MHB); the MHB was supplemented with 1% NaCl for L. garvieae. S. iniae, and V. anguillarum were grown in Tryptic Soy Broth (TSB) supplemented with 1.5% NaCl and E. coli was grown in Luria-Bertani Broth (LB). The fish and human pathogens were grown at 25°C and 37°C, respectively, while shaking at 200 rpm for 18 h except for S. iniae, which was grown for 48 h. The cultures were passaged at least three times each when in log phase to ensure that they had acclimated to culture.
(§2) The minimum inhibitory concentrations (MIC) and minimum bactericidal concentrations (MBC) were determined as previously described following standard methods recommended by the […] for MIC90 and MBC determinations of clinical isolates with some modifications. Overnight bacterial cultures were diluted to 80–88% transmittance in their appropriate medium. The cultures were then diluted again to 1:200 and 100 μL was pipetted into each of 3 wells in 11 columns of a 96-well plate (Corning, Inc., Tewksbury, MA), the 12th column loaded with media without bacteria as a sterility control and blank.
(§3) The synthetic piscidin peptides (piscidins 1, 4, and 7 from striped bass; piscidins 1, 5, and 6 from white bass; and piscidin 3 corresponding to both striped bass and white bass) were prepared by diluting the 4 mg/mL stocks to 2 mg/mL in 0.2% bovine serum albumin (BSA) + 0.01% acetic acid. These were then serially diluted to a concentration of 3.9 μg/mL in the same diluent. The piscidin dilutions were added to the first 10 columns of the 96-well plate containing bacteria, […] was loaded with diluent only to act as a positive growth control. The final concentrations tested were 200 μg/mL to 0.39 μg/mL. The plates were incubated with shaking at 200 rpm for 18 h, except for S. iniae, which was incubated for 48 h. Fish pathogens and human pathogens were incubated at 25°C and 37°C, respectively. […] The MIC was taken as the lowest concentration of piscidin that reduced growth when compared to the growth control by more than 50%. To determine the MBC, 20 μL of the media from the wells of the three lowest piscidin concentrations that had no visible growth of bacteria were plated onto the appropriate media plates and incubated as described above. Colonies were counted to determine whether growth was equal to or less than 0.1% of the colony forming units (CFUs) in the original inoculum. The MBC was defined as the lowest concentration of piscidin that killed at least 99.9% of the CFUs in the original inoculum.

Tetrahymena pyriformis = conditions: piscidin 1 not among peptides tested, previously observed results, cited from earlier work; for PC100 (100% parasiticidal concentration): lowest concentration that killed all T. pyriformis
From the text: Table 4 Minimum parasiticidal concentrations (PCmin) and 100% parasiticidal concentrations (PC100) of various synthetic hybrid striped bass piscidins against the ciliated protozoan, Tetrahymena pyriformis. | column: PCmin (uM) / SB P1; PC100 (uM) / SB P1; PC100 (uM) / WB P1

Vibrio anguillarum = format: cell-based; conditions: 18 h
From the text: as §1, §2, §3

Shigella flexneri = format: cell-based; conditions: S. flexneri ATCC 12022; kills at least 99.9% of CFUs of original inoculum; 37°C, 18 h
From the text: as §1, §2, §3

Staphylococcus aureus = format: cell-based; conditions: 37°C, 18 h; for MIC: S. aureus ATCC 29213, Gram +, human pathogen, MHB, OD630, growth reduced by more than 50%; for MBC: S. aureus ATCC 29213, kills at least 99.9% of CFUs of original inoculum
From the text: as §1, §2, §3

Lactococcus garvieae = format: cell-based; conditions: 18 h
From the text: as §1, §2, §3

Aeromonas salmonicida = format: cell-based; conditions: 18 h
From the text: as §1, §2, §3

Enterococcus faecalis = format: cell-based; conditions: 18 h
From the text: as §1, §2, §3

Streptococcus iniae = format: cell-based; conditions: 48 h; for MIC: S. iniae stock 00–1425, Gram +, fish pathogen, TSB + 1.5% NaCl, OD630, MIC = lowest concentration reducing growth by more than 50%, 3 wells, 200 to 0.39 μg/mL tested
From the text: as §1, §2, §3

[1] = L. garvieae stock 00–1422, kills at least 99.9% of CFUs of original inoculum, 25°C
[2] = E. faecalis ATCC 29212, kills at least 99.9% of CFUs of original inoculum, 37°C
[3] = S. iniae stock 00–1425, lowest concentration killing at least 99.9% of CFUs of original inoculum, plated from MIC wells, 25°C

Row | SMILES | PC100 (100% parasiticidal concentration) (Tetrahymena pyriformis) [µM] | MIC (Staphylococcus aureus) [µM] | MBC (Staphylococcus aureus) [µM] | MBC (Lactococcus garvieae; [1]) [µM] | MBC (Enterococcus faecalis; [2]) [µM] | MIC (Streptococcus iniae; 25°C) [µM] | MBC (Streptococcus iniae; [3]) [µM] | MBC (E. coli) [µM] | MIC (E. coli) [µM] | MBC (Vibrio anguillarum) [µM] | MBC (Aeromonas salmonicida) [µM] | MIC (Aeromonas salmonicida) [µM] | MIC (Enterococcus faecalis) [µM] | other results
1 | CC[C@H](C)[C@H](NC(=O)CNC(=O)[C@H](CCCNC(=N)N)NC(=O)[C@H](Cc1ccccc1)NC(=O)[C@@H](NC(=O)[C@H](Cc1c[nH]cn1)NC(=O)[C@H](Cc1c[nH]cn1)NC(=O)[C@H](Cc1ccccc1)NC(=O)[C@@H](N)Cc1ccccc1)[C@@H](C)CC)C(=O)N[C@H](C(=O)N[C@@H](Cc1c[nH]cn1)C(=O)N[C@H](C(=O)NCC(=O)N[C@@H](CCCCN)C(=O)N[C@H](C(=O)N[C@H](C(=O)N[C@@H](Cc1c[nH]cn1)C(=O)N[C@@H](CCCNC(=N)N)C(=O)N[C@@H](CC(C)C)C(=O)N[C@H](C(=O)N[C@H](C(=O)NCC(=O)O)[C@@H](C)O)C(C)C)[C@@H](C)CC)[C@@H](C)O)C(C)C)C(C)C [SB P1] (H-FFHHIFRGIVHVGKTIHRLVTG-OH) | 5 | 2.43 (≈ 6.25 µg/mL) | 2.43 (≈ 6.25 µg/mL) | 1.22 (≈ 3.14 µg/mL) | 2.43 (≈ 6.25 µg/mL) | 1.22 | 1.22 (≈ 3.14 µg/mL) |  |  |  |  |  |  | MIC (E. coli; E. coli ATCC 25922, Gram -, human pathogen, LB, 37°C, OD630, growth reduced by more than 50%): 4.86 µM (≈ 12.5 µg/mL); PCmin (minimum parasiticidal concentration) (Tetrahymena pyriformis; lowest concentration that killed at least one T. pyriformis): 2.5 µM; MIC (Vibrio anguillarum; V. anguillarum ATCC 19264, Gram -, fish pathogen, TSB + 1.5% NaCl, 25°C, OD630, growth reduced by more than 50%): 2.43 to 4.86 µM; MBC (Vibrio anguillarum; V. anguillarum ATCC 19264, kills at least 99.9% of CFUs of original inoculum, 25°C): 9.72 µM (≈ 25 µg/mL); MBC (Shigella flexneri): 4.86 µM (≈ 12.5 µg/mL); MIC (Lactococcus garvieae; L. garvieae stock 00–1422 (multiple antibiotic-resistant), Gram +, fish pathogen, MHB + 1% NaCl, 25°C, OD630, growth reduced by more than 50%): 1.22 µM; MIC (Aeromonas salmonicida; A. salmonicida ATCC 7965, Gram -, fish pathogen, MHB, 25°C, OD630, growth reduced by more than 50%): >77.76 µM; MIC (Enterococcus faecalis; E. faecalis ATCC 29212, Gram +, human pathogen, MHB, 37°C, OD630, growth reduced by more than 50%): 1.22 µM (≈ 3.14 µg/mL)
2 | CC[C@H](C)[C@H](NC(=O)CNC(=O)[C@H](CCCNC(=N)N)NC(=O)[C@H](Cc1ccccc1)NC(=O)[C@@H](NC(=O)[C@H](Cc1c[nH]cn1)NC(=O)[C@H](Cc1c[nH]cn1)NC(=O)[C@@H](NC(=O)[C@@H](N)Cc1ccccc1)[C@@H](C)CC)[C@@H](C)CC)C(=O)N[C@H](C(=O)N[C@@H](Cc1c[nH]cn1)C(=O)N[C@@H](C)C(=O)NCC(=O)N[C@@H](CCCNC(=N)N)C(=O)N[C@@H](CO)C(=O)N[C@H](C(=O)NCC(=O)N[C@@H](CCCNC(=N)N)C(=O)N[C@@H](Cc1ccccc1)C(=O)N[C@@H](CC(C)C)C(=O)N[C@H](C(=O)NCC(=O)O)[C@@H](C)O)[C@@H](C)CC)C(C)C [SB/WB P3] (H-FIHHIFRGIVHAGRSIGRFLTG-OH; N-terminus and C-terminus assumed) |  |  |  |  |  |  |  | 80.26 (≈ 200 µg/mL) | 80.26 (≈ 200 µg/mL) | 20.06 (≈ 50 µg/mL) | >80.26 | >80.26 | 1.26 (≈ 3.14 µg/mL) | MBC (Lactococcus garvieae): 5.02 µM (≈ 12.5 µg/mL); MBC (Enterococcus faecalis): 10.03 µM (≈ 25 µg/mL); MBC (Streptococcus iniae): 2.51 µM (≈ 6.25 µg/mL)
3 | CC[C@H](C)[C@H](NC(=O)CNC(=O)[C@H](CCCNC(=N)N)NC(=O)[C@H](Cc1ccccc1)NC(=O)[C@@H](NC(=O)[C@H](Cc1c[nH]cn1)NC(=O)[C@H](Cc1c[nH]cn1)NC(=O)[C@H](Cc1ccccc1)NC(=O)[C@@H](N)Cc1ccccc1)[C@@H](C)CC)C(=O)N[C@H](C(=O)N[C@@H](Cc1c[nH]cn1)C(=O)N[C@H](C(=O)NCC(=O)N[C@@H](CCCCN)C(=O)N[C@H](C(=O)N[C@H](C(=O)N[C@@H](Cc1c[nH]cn1)C(=O)N[C@@H](CCCCN)C(=O)N[C@@H](CC(C)C)C(=O)N[C@H](C(=O)N[C@H](C(=O)NCC(=O)O)[C@@H](C)O)C(C)C)[C@@H](C)CC)[C@@H](C)O)C(C)C)C(C)C [WB P1] (H-FFHHIFRGIVHVGKTIHKLVTG-OH; N-terminus and C-terminus assumed) | 2.48 | 2.46 (≈ 6.26 µg/mL) | 2.46 (≈ 6.26 µg/mL) | 2.46 (≈ 6.26 µg/mL) | 2.46 (≈ 6.26 µg/mL) | 2.46 | 2.46 (≈ 6.26 µg/mL) | >78.61 | 4.91 (≈ 12.5 µg/mL) | 9.83 (≈ 25 µg/mL) | >78.61 | >78.61 | 1.23 (≈ 3.13 µg/mL) | 
